The results in this text go back to patent US6888016B2, “Mixtures for stimulating glucose up-take” (Loders Croklaan USA LLC, priority 2001, dated 2005).

The assay deals with 3T3-L1 adipocytes. Put plainly: Insulin stimulated glucose uptake (ISGU), [3H]2-deoxyglucose incorporation in differentiated adipocytes. It is filed as cell-based, Murine. To be noted: 3 days incubation; for increase in glucose uptake in combination with CLA over CLA alone: compound A in combination with CLA, 1 nM insulin, significantly higher than CLA alone, P<0.05 Students T-test, FIG. 2. Here is the method: Murine (3T3-L1 cells; ATCC CL-173) were seeded into multi-well plates and incubated in growth medium (DMEM supplemented with 10% FCS, 2 mM L-glutamine, 100 iu/ml penicillin and 100 μg/ml streptomycin) at 37° C./5% CO2 until 2 days post-confluence (day 0). Differentiation was carried out approximately according to Iwata et al (Diabetes 2001 50: 1083-1092). Briefly, differentiation was induced by changing to growth medium containing 3-isobutyl-1-methylxanthine (0.5 mM), dexamethasone (0.25 μM) and 1 μM insulin for 3 days, and then growth medium containing 0.8 μM insulin for another 3 days. Finally cells were retained in serum free growth medium until ready for experimentation, typically cells were used between days 6-9.
Pine nut oil (PNO) and palm kernel oil (PKO) fatty acids were prepared by saponification of pine nut oil or palm kernel oil. PNO contains high levels of PUFAs, in particular high levels of pinolenic acid. PKO has high levels of medium chain fatty acids (C8-12). All samples were prepared as 1 mg/ml stocks in ethanol and diluted in media accordingly with the following exceptions. IGF-1 was prepared by initially dissolving in […], followed by the addition of 400 μl PBS supplemented with 1 mg/ml BSA. This was diluted with media to the correct concentration. Ascorbic acid, sodium vanadate and aspartame were made up in DMEM.
Differentiated adipocytes were incubated for a period of 3 days in DMEM (containing 2 mM L-glutamine, 100 iu/ml penicillin, 100 μg/ml streptomycin, 1 nM insulin and 10% FCS) supplemented with or without CLA and/or compound As. The cells were then washed three times with DMEM (containing 1 mM deoxyglucose). Insulin stimulated glucose uptake was carried out according to Iwata et al (Diabetes 2001 50: 1083-1092). Briefly, cells were stimulated with 1 nM insulin in Krebs Ringer Phosphate (KRP) and HEPES buffer [10 mM HEPES, 131.2 mM NaCl, 4.7 mM KCl, 2.5 mM CaCl2, 1.2 mM MgSO4, 2.5 mM sodium phosphate buffer, pH 7.4] with 1% BSA at 37° C. […] Radioactive incorporation was measured by scintillation counting of 100 μl of each cell lysate. […]

As to `O=C1O[C@H]([C@@H](O)CO)C(O)=C1O` [Vit C, Ascorbic acid], the “increase in glucose uptake in combination with CLA over CLA alone” value came out at 20%.
“IGF-1: IGF-1, purified or in natural extracts; compound A”: the “increase in glucose uptake in combination with CLA over CLA alone” value turned out to be 39%.
As to Conjugated linoleic acid [CLA], the “insulin stimulated glucose uptake (ISGU), effect of CLA alone” value (CLA fatty acids at 10 or 50 μg/ml, compared with control differentiated adipocytes, radiolabel incorporation (3H-DPM), FIG. 1) is “reduces ISGU compared with the control”.
